Measured values: article PMC12118337, “Development of a Peptide Inhibitor Targeting the C‐SH2 Domain of the SHP2 Phosphatase” (Chembiochem, 2025)
Residues, ends and D or L forms follow the SMILES beside them. *: point of attachment. 5FAM = O=C1OC2(c3ccc(O)cc3Oc3cc(O)ccc32)c2ccc(C(=O)*)cc21; X1 = O=C(O)C(C(=O)O)*

Key:
[1] = molecular target: T1, SHP2 N‐SH2 domain (Homo sapiens, UniProt Q06124); test: Fluorescence polarization (FP) binding assay, SHP2 N-SH2 domain; settings: 100 nM FAM-labelled peptide, increasing N-SH2 protein, 50 mM HEPES pH 7.5, 150 mM NaCl, 1 mM EDTA, 0.05% Tween 20, FP at 10 min, three independent experiments in technical triplicates, read-out: K D ± SEM, N‐SH2 (FP)
T1 construct: SHP2 N-SH2 domain (1–105), C-SH2 domain (106–220), PTP domain (224–541) and; His6 (pETM22 vector) (N, cleaved yes); made in house; host or cells: E. coli BL21(DE3)
T1 sequence (Q06124 1-105): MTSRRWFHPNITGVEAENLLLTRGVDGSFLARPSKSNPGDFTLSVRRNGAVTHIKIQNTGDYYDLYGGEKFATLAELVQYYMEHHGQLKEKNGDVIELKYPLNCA
Procedure: buffer and stored in 5 mL binding buffer at 4°C. His-tagged 3C protease (0.5 mg; EMBL) was added to the pooled eluted fractions and dialysed using Spectra Por Dialysis Tubing (MWCO 6-8 kDa, 23 mm; Spectrum Labs) in 1 L of binding buffer at 4°C for 3 hours, then overnight in fresh buffer. A new column was prepared by loading 2 mL Ni-NTA Agarose (Invitrogen) as a 50% slurry in EtOH. The column was washed with 10 mL H2O to remove the EtOH and equilibrated with 10 mL binding buffer. The protein/3C protease mixture was loaded onto the column and incubated for 1 hour at 4°C on a rocker. The flow through containing the protein was collected, the column was washed with 100 mL binding buffer and the 3C protease was eluted with 5 mL elution buffer. Protein purification was monitored by SDS-PAGE using NuPAGE 4-12% Bis-Tris Protein Gels (Invitrogen) run in MOPS buffer (50 mM MOPS, 50 mM Tris-HCl pH 7.7, 1 mM EDTA, 0.1% SDS) followed by Coomassie staining using Coomassie Brilliant Blue (Roth). The purified protein was dialysed into the final storage buffer (50 mM HEPES pH 7.5, 150 mM NaCl, 2 mM DTT, 20% glycerol). Aliquots were prepared and stored at -80°C until required. […]
4. Fluorescence polarization
Fluorescence polarization (FP) was used to measure the binding of FAM-labelled peptides to the SHP2 C-SH2, SHP2 N-SH2, SHP2 PTP, CSK SH2 or Src SH2 domains. Each peptide was added to increasing concentrations of SHP2 C-SH2, SHP2 N-SH2, SHP2 PTP, CSK SH2 or Src SH2 protein in FP buffer (50 mM HEPES pH 7.5, 150 mM NaCl, 1 mM EDTA, 0.05% Tween 20) to give a final peptide […]
concentration of 100 nM in a final volume of 200 µL. For baseline subtraction, each peptide was added to FP buffer, instead of protein, with a final peptide concentration of 100 nM in a final volume of 200 µL. Samples were mixed gently then 3 x 60 µL of each sample was transferred into triplicate wells in a 96-well plate (OptiPlate-96 F Black; PerkinElmer). The FP was immediately measured on a Synergy H1 Microplate Reader (BioTek) with the excitation and emission monitored at 485 nm and 528 nm, respectively, over 30 minutes. FP values were automatically calculated by the Gen5 3.03 (BioTek) software associated with the microplate reader. Data were analysed in Excel 2016 by subtracting baseline values from FP values at 10 minutes. Data were then further analysed in GraphPad Prism 6 by plotting the baseline subtracted FP values against the protein concentration and fitting the data to a variable slope model of non-linear regression to obtain the KD values. Data are from three independent experiments, each performed in technical triplicates.
5. Isothermal titration calorimetry […]
Analysis Software (Malvern Panalytical). For the data analysis, a 1:1 binding stoichiometry between the Ac-ITSM(pTyr) and SH2 domain was assumed. ITC measurements were performed once.

[2] = Peptide stability in Jurkat cell lysate (LC-MS); assay type: in vitro ADME; settings: 200 µM peptide, WT Jurkat T cell lysate (RIPA buffer with protease inhibitor cocktail), 37 °C in the dark, 0, 6 or 24 h, peak area at 254 nm normalised to FAM (200 µM) internal control, three independent experiments
Procedure: 1. Cell culture and cell lines
Jurkat T cells were cultured in RPMI 1640 GlutaMAX (Thermo Fisher Scientific) supplemented with 10% heat-inactivated fetal bovine serum (FBS; Thermo Fisher Scientific), 100 U/mL penicillin (Sigma-Aldrich) and 100 µg/mL streptomycin (Sigma-Aldrich). HeLa cells were cultured in DMEM low glucose GlutaMAX (Thermo Fisher Scientific) supplemented with 10% fetal bovine serum (FBS; Thermo Fisher Scientific), 100 U/mL penicillin (Sigma-Aldrich) and 100 µg/mL streptomycin (Sigma-Aldrich).
Both cell lines tested negative for mycoplasma contamination.
2. Peptide stability in Jurkat cell lysate
The stability of FAM-labelled peptide 26 in WT Jurkat T cell lysate was evaluated by LC-MS. 106 Jurkat cells were washed with 1 mL PBS and lysed in 1 mL ice-cold RIPA buffer (25 mM Tris-HCl pH 7.5, 150 mM NaCl, 1% Nonidet P-40, 1% sodium deoxycholate, 0.1% SDS) containing cOmplete EDTA-free Protease Inhibitor Cocktail (Roche), on ice for 30 minutes vortexing every 10 minutes. Cell lysate was centrifuged at 20000 x g for 20 minutes at 4°C. […] The supernatant was collected on ice, filtered using a 13 mm syringe filter with a 0.2 µm PTFE membrane (Pall Life Sciences) and analysed by analytical HPLC-MS. The area under the peak at 254 nm corresponding to peptide 26 and FAM was determined. […]

Kd [1]: > 32 µM
stability in Jurkat T cell lysate [2]: stable
SMILES: CC[C@H](C)[C@H](NC(=O)[C@@H](NC(=O)[C@H](C)NC(=O)[C@H](Cc1ccc(OC(C(=O)O)C(=O)O)cc1)NC(=O)[C@H](CCC(=O)O)NC(=O)[C@@H](NC(=O)[C@H](CCC(N)=O)NC(=O)c1ccc2c(c1)C(=O)OC21c2ccc(O)cc2Oc2cc(O)ccc21)[C@@H](C)O)[C@@H](C)O)C(=O)N[C@@H](CCCCN)C(=O)N[C@@H](Cc1c[nH]cn1)C(=O)N1CCC[C@H]1C(N)=O [peptide 26] (5FAM-QTEY(X1)ATIKHP-NH2)
